Patent US7582611B2, “Motilide compounds” (Pfizer Inc., priority 2005, dated 2009)
≈ marks a conversion by molar mass, not a printed value. Like-named read-outs stand apart in the source and are kept apart here.

Legend:
[1] = tested on: Streptococcus pneumoniae ATCC 6301; experiment: Evaluation of antibacterial activity (MIC, serial dilutions on 96-well microtiter plates); assay type: cell-based; settings: ATCC6301, read-out: Antibacterial Activity (MIC, μg/mL)
Motilin Receptor = molecular target: T1, Motilin Receptor (Oryctolagus cuniculus, UniProt G1T803); experiment: Tissue based assay for motilin agonist potency (rabbit duodenum contractility); assay type: cell-based
T1 construct: strips of longitudinal smooth muscle were sliced from the segments; from tissue; host or cells: rabbit duodenum longitudinal smooth muscle strips
Protocol: The motilin agonist potencies of compounds of this invention were evaluated using a tissue based assay, using rabbit duodenum tissue-based contractility assay, generally following the procedure of Depoortere et al., J. Gastrointestinal Motility, 1, 150-159 (1989), the disclosure of which is incorporated herein by reference. Briefly, this method measures the ability of a compound to induce contractions in rabbit duodenal tissue, a motilin receptor-bearing tissue contractilely responsive to motilin.
Strips of rabbit duodenum were tested and qualified for use in the assay by as follows. Segments of rabbit duodenum, 20-30 cm distal to the pylorus were split longitudinally. The mucosa was removed and 2×2×15 mm strips of longitudinal smooth muscle were sliced from the segments. The strips were bathed in oxygenated Krebs solution at 37° C., with 1.5 g of tension, and contractions measured auxotonically.
The carbachol was then washed away by changing the organ bath buffer twice. The strips were washed again 20±5 minutes following the carbachol contraction. Following this last wash a dose response study was initiated within 10±5 min. Each compound tested was dissolved in dimethylsulfoxide (DMSO) to a final concentration of 10 mM. A series of seven 10× serial dilutions in water was prepared, so that the concentration of the seventh serial dilution was 1.0×10^−6 mM. The first through fifth serial dilutions of the compound were applied, starting with 200 μL of the most dilute solution. After each application, there was a wait of 2±0.5 min, until the response was stable, before the application of the next dose (the next higher concentration serial dilution). The dose was increased in 10-fold increments until a small response was observed. Subsequent doses were the increased in 2- to 5-fold increments, until the maximum response was obtained. At 2±0.5 min after the last drug addition, the strips were dosed with 1 μM carbachol.
The EC50 (concentration producing a half-maximal effect) was calculated as follows. The basal tension was subtracted from the compound-induced tension for each reading. The data points were normalized against the response obtained from 1 μM carbachol at the end of the experiment. The concentration of compound was plotted against the response and fitted to the following equation: R=(Rmax·C)/(EC50+C) where R is the contraction response, Rmax is the maximal contraction response, and C is the concentration of compound. Both R and Rmax are expressed as a fraction of the 1 μM carbachol contraction and range from 0 to 1.

[2] = rabbit duodenum strips, contraction normalized to 1 μM carbachol, read-out: Motilin Receptor Agonist Activity (EC50)

T1 sequence (G1T803 1-400): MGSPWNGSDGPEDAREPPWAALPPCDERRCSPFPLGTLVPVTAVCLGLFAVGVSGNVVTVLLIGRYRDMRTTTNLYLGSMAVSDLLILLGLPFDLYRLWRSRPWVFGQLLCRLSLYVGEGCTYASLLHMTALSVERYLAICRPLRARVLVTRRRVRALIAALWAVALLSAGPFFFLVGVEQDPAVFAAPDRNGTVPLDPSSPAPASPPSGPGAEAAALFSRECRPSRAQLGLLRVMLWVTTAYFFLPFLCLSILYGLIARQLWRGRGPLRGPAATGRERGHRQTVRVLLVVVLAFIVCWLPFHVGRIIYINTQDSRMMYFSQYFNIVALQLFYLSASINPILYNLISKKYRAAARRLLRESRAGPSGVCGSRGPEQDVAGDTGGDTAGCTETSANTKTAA

SMILES	MIC [1] [µg/mL]	EC50 (Motilin Receptor; [2]) [µM]	EC50 (Motilin Receptor) [µM]
CC[C@H]1OC(=O)[C@H](C)[C@@H](O[C@H]2C[C@@](C)(OC)[C@@H](O)[C@H](C)O2)[C@H](C)[C@@H](O[C@@H]2O[C@H](C)C[C@H](N(C)C(C)C)[C@H]2O)[C@](C)(O)C[C@@H](C)[C@H](NS(=O)(=O)CC)[C@H](C)[C@@H](O)[C@]1(C)O [Compound A-40]	128 (≈ 150 µM)	0.35	–
CC[C@H]1OC(=O)[C@H](C)[C@@H](O[C@H]2C[C@@](C)(OC)[C@@H](O)[C@H](C)O2)[C@H](C)[C@@H](O[C@@H]2O[C@H](C)C[C@H](N(C)C(C)C)[C@H]2O)[C@](C)(O)C[C@@H](C)[C@H](NS(=O)(=O)C2CC2)[C@H](C)[C@@H](O)[C@]1(C)O [Compound A-41]	128 (≈ 148 µM)	0.17	–
CC[C@H]1OC(=O)[C@H](C)[C@@H](O[C@H]2C[C@@](C)(OC)[C@@H](O)[C@H](C)O2)[C@H](C)[C@@H](O[C@@H]2O[C@H](C)C[C@H](N(C)C3CCC3)[C@H]2O)[C@](C)(O)C[C@@H](C)[C@H](NS(=O)(=O)C2CC2)[C@H](C)[C@@H](O)[C@]1(C)O [Compound A-42]	> 128	0.34	–
CC[C@H]1OC(=O)[C@H](C)[C@@H](O[C@H]2C[C@@](C)(OC)[C@@H](O)[C@H](C)O2)[C@H](C)[C@@H](O[C@@H]2O[C@H](C)C[C@H](N(C)C(C)C)[C@H]2O)[C@](C)(O)C[C@@H](C)[C@H](NS(=O)(=O)C(F)(F)F)[C@H](C)[C@@H](O)[C@]1(C)O [Compound A-43]	64 (≈ 71.5 µM)	0.33	–
CC[C@H]1OC(=O)[C@H](C)[C@@H](O[C@H]2C[C@@](C)(OC)[C@@H](O)[C@H](C)O2)[C@H](C)[C@@H](O[C@@H]2O[C@H](C)C[C@H](N(C)C(C)C)[C@H]2O)[C@](C)(O)C[C@@H](C)[C@H](OCC(=O)NC2CCC2)[C@H](C)[C@@H](O)[C@]1(C)O [Compound A-45]	128 (≈ 146 µM)	0.028	–
CC[C@H]1OC(=O)[C@H](C)[C@@H](O[C@H]2C[C@@](C)(OC)[C@@H](O)[C@H](C)O2)[C@H](C)[C@@H](O[C@@H]2O[C@H](C)C[C@H](N(C)C(C)C)[C@H]2O)[C@](C)(O)C[C@@H](C)[C@H](OCC(=O)NC2CC2)[C@H](C)[C@@H](O)[C@]1(C)O [Compound A-46]	128 (≈ 149 µM)	0.031	–
CC[C@H]1OC(=O)[C@H](C)[C@@H](O[C@H]2C[C@@](C)(OC)[C@@H](O)[C@H](C)O2)[C@H](C)[C@@H](O[C@@H]2O[C@H](C)C[C@H](N(C)C(C)C)[C@H]2O)[C@](C)(O)C[C@@H](C)[C@H](OCC(=O)NCCN2CCOCC2)[C@H](C)[C@@H](O)[C@]1(C)O [Compound A-48]	64 (≈ 68.5 µM)	0.14	–
CC[C@H]1OC(=O)[C@H](C)[C@@H](O[C@H]2C[C@@](C)(OC)[C@@H](O)[C@H](C)O2)[C@H](C)[C@@H](O[C@@H]2O[C@H](C)C[C@H](N(C)C(C)C)[C@H]2O)[C@](C)(O)C[C@@H](C)[C@H](OCCF)[C@H](C)[C@@H](O)[C@]1(C)O [Compound A-49]	128 (≈ 158 µM)	–	0.14
CC[C@H]1OC(=O)[C@H](C)[C@@H](O[C@H]2C[C@@](C)(OC)[C@@H](O)[C@H](C)O2)[C@H](C)[C@@H](O[C@@H]2O[C@H](C)C[C@H](N(C)C(C)C)[C@H]2O)[C@](C)(O)C[C@@H](C)[C@H](OCCCCCC(N)=O)[C@H](C)[C@@H](O)[C@]1(C)O [Compound A-50]	> 128	0.17	–
CC[C@H]1OC(=O)[C@H](C)[C@@H](O[C@H]2C[C@@](C)(OC)[C@@H](O)[C@H](C)O2)[C@H](C)[C@@H](O[C@@H]2O[C@H](C)C[C@H](N(C)C3CCC3)[C@H]2O)[C@](C)(O)C[C@@H](C)[C@H](OCC(=O)NC)[C@H](C)[C@@H](O)[C@]1(C)O [Compound A-51]	> 128	0.51	–
CC[C@H]1OC(=O)[C@H](C)[C@@H](O[C@H]2C[C@@](C)(OC)[C@@H](O)[C@H](C)O2)[C@H](C)[C@@H](O[C@@H]2O[C@H](C)C[C@H](N(C)C(C)C)[C@H]2O)[C@](C)(O)C[C@@H](C)[C@H](OCC(=O)NCC(F)(F)F)[C@H](C)[C@@H](O)[C@]1(C)O [Compound A-52]	128 (≈ 142 µM)	0.16	–
